Assay [1] deals with T1, K2P2.1(TREK-1)Δ308 (Mus musculus, UniProt P97438).
T1 construct: and at residue 308, K2P2.1(TREK-1)Δ308; expressed in transfected cells; host or cells: Xenopus laevis oocytes, mRNA injected
The assay can be described thus: TEVC of C-terminal truncation at residue 308. Type of assay: cell-based. To be noted: Xenopus oocytes, saturation not reached, fit with upper boundary of 15 (I/I0). The source says: Constructs for murine K2P channels, including K2P2.1(TREK-1) (Gene ID 16526), K2P10.1(TREK-2) (Gene ID 72258), K2P4.1(TRAAK) (Gene ID 16528), K2P5.1(TASK-2) (Gene ID 16529), K2P3.1(TASK-1) (Gene ID 16527), K2P9.1(TASK-3) (Gene ID 223604), and K2P18.1(TRESK) (Gene ID 332396) in pGEMHE/pMO, were used for Xenopus oocyte experiments as previously described.[10],[26] Murine K2P2.1(TREK-1) (Gene ID 16526) was expressed in HEK-293 cells using a pIRES-EGFP construct as previously described.[26] Murine K2P13.1(THIK-1) (Gene ID 217826) and K2P1.1(TWIK-1) (Gene ID 16525) were cloned into pGEMHE/pMO for use in Xenopus oocytes. […]
Xenopus laevis oocytes were harvested in accordance with UCSF IACUC protocol AN129690 and digested in calcium-free ND-96 (96 mM NaCl, 2 mM KCl, 3.8 mM MgCl2) immediately following harvest, as previously described.[6],[10] […] Defolliculated stage V–VI oocytes were injected with 0.2–6.0 ng of mRNA in 50 nL, and currents were recorded 24–48 h after injection. mRNA was synthesized from plasmid DNA using mMessage mMachine Kit (T7 promoter, Ambion, Life Technologies) and purified using RNEasy Kit (Qiagen). […] Once stabilized basal currents were recorded, compounds were perfused at various concentrations in standard ND96 and currents were allowed to increase to stabilization before recording final current. […]

Assay [2] deals with T2, K2P2.1(TREK-1) F172M (Mus musculus, UniProt P97438, F187M).
T2 construct: expressed in transfected cells; host or cells: Xenopus laevis oocytes, mRNA injected
T2 sequence (P97438 1-411 isoform P97438-2 F172M): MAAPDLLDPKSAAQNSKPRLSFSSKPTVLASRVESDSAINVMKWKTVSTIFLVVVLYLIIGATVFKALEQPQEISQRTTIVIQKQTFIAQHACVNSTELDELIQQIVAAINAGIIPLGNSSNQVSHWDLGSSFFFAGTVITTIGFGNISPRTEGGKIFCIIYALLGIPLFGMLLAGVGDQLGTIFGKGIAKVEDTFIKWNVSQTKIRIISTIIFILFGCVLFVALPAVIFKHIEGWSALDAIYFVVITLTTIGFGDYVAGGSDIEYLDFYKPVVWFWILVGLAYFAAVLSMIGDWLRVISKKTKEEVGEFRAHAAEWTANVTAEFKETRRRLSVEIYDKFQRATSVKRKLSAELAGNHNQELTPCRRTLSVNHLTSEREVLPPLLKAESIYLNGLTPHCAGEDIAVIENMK
The assay can be described thus: TEVC of K2P2.1(TREK-1) mutant F172M. In kind it is cell-based. The settings on record: Xenopus oocytes. From the text: To identify K2P2.1(TREK-1) M2 residues that might participate in the BL-1249 response, we mapped the residues that differ between K2P2.1(TREK-1) and K2P4.1(TRAAK) in the context of the K2P2.1(TREK-1) structure[6] (Figure 5B,C). Two K2P2.1(TREK-1) M2 residues stood out as candidates that could explain the reduction in BL-1249 response when the entire M2 helix was replaced with M2 from K2P4.1(TRAAK). One is at the M2/M4 interface and occurs between Phe172 and Arg297 via a π–cation interaction that would be lost when Phe172 is replaced with the equivalent K2P4.1(TRAAK) residue Met134 (Figure 5C, right inset). […] To assess the importance of these interactions in the context of BL-1249 response, we made the K2P2.1(TREK-1) mutants F172M and F185L and measured their responses to BL-1249 (Figure 5D). […]
Xenopus laevis oocytes were harvested in accordance with UCSF IACUC protocol AN129690 and digested in calcium-free ND-96 (96 mM NaCl, 2 mM KCl, 3.8 mM MgCl2) immediately following harvest, as previously described.[6],[10] […] Defolliculated stage V–VI oocytes were injected with 0.2–6.0 ng of mRNA in 50 nL, and currents were recorded 24–48 h after injection. mRNA was synthesized from plasmid DNA using mMessage mMachine Kit (T7 promoter, Ambion, Life Technologies) and purified using RNEasy Kit (Qiagen). […]

Each structure is given as a SMILES string.

T1 sequence (P97438 1-308 isoform P97438-2): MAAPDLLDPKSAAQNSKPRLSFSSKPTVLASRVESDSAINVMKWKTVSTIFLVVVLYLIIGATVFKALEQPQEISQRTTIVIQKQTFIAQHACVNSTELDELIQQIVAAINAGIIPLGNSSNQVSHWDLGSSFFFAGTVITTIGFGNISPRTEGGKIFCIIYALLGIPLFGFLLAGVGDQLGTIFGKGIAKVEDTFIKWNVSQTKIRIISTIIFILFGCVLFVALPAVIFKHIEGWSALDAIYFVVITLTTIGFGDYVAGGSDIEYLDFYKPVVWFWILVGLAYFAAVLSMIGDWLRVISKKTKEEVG

As for `c1ccc(-c2nnn[nH]2)c(Nc2cccc3c2CCCC3)c1` [BL-1249, (5,6,7,8-tetrahydro-naphthalen-1-yl)-[2-(1H-tetrazol-5-yl)-phenyl]-amine], the figures for the EC50 in assay [1] and in assay [2] were 35 ± 8 µM and 15 ± 2 µM, respectively.
